Laboratory results taken from US7511034B2, “Dialkylhydroxybenzoic acid derivatives containing metal chelating groups and their therapeutic uses” (Samsung Electronics Co., Ltd., priority 2001, dated 2009).

Legend:
[1] = test system: multilayer liposome (soybean phosphatidylcholine); experiment: Inhibition of lipid peroxidation (liposome oxidation, TBA absorbance at 532 nm); assay type: biochemical; details: liposome oxidation initiated by FeCl2, 37° C., 15 minutes; read-out: Inhibitor Concentration (IC50)
Description: The compounds of the present invention were tested for antioxidizing effect in terms of the repression of the radical chain reaction of a multilayer liposome.
The liposome was prepared as followings: 30 mg of commercially available soybean phosphatidylcholine (PC, Sigma Chemical Co., U.S.A.) was dissolved in 1 mL of ethanol, and 200 μL of the ethanol/PC solution was added to 10 mL of 10 mM Tris buffer including 50 mM NaCl (pH 7.0) with stirring.
The ability of a compound to inhibit oxidation of the liposome was evaluated as followings: To 400 μL of the liposomes were added the test compound (in buffer or ethanol) and histidine-FeCl3 (167:33 μM final). Oxidation was initiated by the addition of FeCl2 (33 μM final prepared in nitrogen purged water). The mixtures was shaken at 37° C. for 15 minutes. Thereafter, tubes were treated with 1 mL of 0.67% thiobabituric acid (TBA):10% trichloroacetic acid (2:1, v/v) in 0.25 N HCl solution, containing 1.5% (v/v) t-butylhydroxytoluene (BHT) to terminate oxidation. The aliquots were heated to 100° C. for 20 minutes. After ice cooling, 1 mL of chloroform was added to 1 mL supernatant from tubes and tubes were centrifuged. The absorbances of the resulting supernatant were measured at 532 nm (see: Table below).

[2] = test system: ischemic neuronal degeneration; experiment: Protection of cell damage by ischemia (in vivo), hippocampus Cresyl violet staining; parameters: species or system Mongolian gerbils (Meriones unguiculatus); details: gerbils, 60 mg/kg P.O., 4 days reperfusion; for protective effect: 5 min carotid occlusion, pre-treated groups
Description: Male Mongolian gerbils (Meriones unguiculatus) weighing 80-88 g were used in the present study. Each animal was medicated P.O. with vehicle, Ebselen or various test compounds (60 mg/kg in 10% DMSO), after 30 minutes ischemic injury, respectively. 20 animals were allotted into every group. The animals were placed under general anesthesia with a mixture of 2.5% isoflurane in 33% oxygen and 67% nitrous oxide. A midline ventral incision was made in the neck. Both common carotid arteries were isolated, freed of nerve fibers, and occluded using nontraumatic aneurysm clips. Complete interruption of blood flow was confirmed by observing the central artery in eyeballs using ophthalmoscope. After five minutes of occlusion, the aneurysm clips were removed from both common carotid arteries. Restoration of blood flow (reperfusion) was observed directly under the microscope. Sham-operated controls were subjected to the same surgical procedures except that common carotid arteries were not occluded. Body temperature was monitored and maintained at 37° C.±0.5° C. during surgery and during the immediate postoperative period until the animals recovered fully from anesthesia. At the designated reperfusion time (4 days), operated animals and sham animals were killed.
Animals were perfused transcardially with phosphate-buffered saline (PBS, pH 7.4) followed by 4% paraformaldehyde in 0.1 M phosphate buffer (pH 7.4) at 4 days (n=7) after surgery. The brains were removed, and postfixed in the same fixative for 4 hours. The brain tissues were cryoprotected by infiltration with 30% sucrose overnight. Cornoy fixed specimens were cut into 30 μm sections on a cryostat. The sections were sequentially stained by Cresyl violet dye.
Images of staining in the hippocampus of each animal were captured with an Applescanner. […] All data obtained from the quantitative data were analyzed using one-way ANOVA to determine statistical significance. Bonferroni's test was used for post-hoc comparisons. P values below 0.05 or 0.01 were considered statistically significant.

[3] = test system: mice; details: oral administration; cited from earlier work
[4] = test system: rats; details: oral administration; cited from earlier work
[5] = even in the presence of an excess of glutathione (GSH); cited from earlier work
[6] = Acute toxicity LD50 in rats; details: rat, in vivo

Row | Compound | IC50 [1] [µM] | other results
1 | CCOC(=O)c1csc(NC(=O)c2cc(C(C)(C)C)c(O)c(C(C)(C)C)c2)n1 [Example 5, 2-(3,5-Di-tert-butyl-4-hydroxy-benzoylamino)-thiazole-4-carboxylic acid ethyl ester] | 11.1 | 
2 | O=c1c2ccccc2[se]n1-c1ccccc1 [Ebselen] |  | protective effect [2]: 69%; LD50 [3]: ≥ 6,810 mg/kg; LD50 [4]: ≥ 6,810 mg/kg; solubility in water [5]: very little soluble in water
3 | CC(C)(C)c1cc(C(=O)Nc2ccc(O)c3ncccc23)cc(C(C)(C)C)c1O [Example 3, 3,5-Di-tert-butyl-4-hydroxy-N-(8-hydroxyyquinolin-5-yl) benzamide] | 7.79 | 
4 | Cc1cc(C(=O)Nc2ccccn2)cc(C)c1O [Example 6, 4-Hydroxy-3,5-dimethyl-N-pyridin-2-yl-benzamide] | 122 | 
5 | Cc1c(C)c2c(c(C)c1O)CCC(C)(C(=O)O)O2 (stereo not shown) [Trolox, reference compound] | 10.2 | 
6 | CC(C)(C)c1cc(C(=O)Nc2nccs2)cc(C(C)(C)C)c1O [Example 4, 3,5-Di-tert-butyl-4-hydroxy-N-thiazol-2-yl benzamide] | 9.69 | protective effect [2]: 91%; neuroprotective effects against ischemic neuronal degeneration compared with Ebselen [2]: more neuroprotective effects against ischemic neuronal degeneration than those of Ebselen; LD50 ([6]; ip, intraperitoneal administration in rats): ≥ 800 mg/kg; LD50 ([6]; oral administration in rats): ≥ 6950 mg/kg

Further lines, with some results ahead:

Row | IC50 [1] [µM] | Compound | other results
7 | 12.7 | CC(C)(C)c1cc(C(=O)NCc2ccccn2)cc(C(C)(C)C)c1O [Example 2, 3,5-Di-tert-butyl-4-hydroxy-N-pyridin-2-yl methyl benzamide] | 
8 | 300 | Cc1cc(C(=O)NCc2ccccn2)cc(C)c1O [Example 7, 4-Hydroxy-3,5-dimethyl-N-pyridine-2-yl methyl benzamide] | 
9 | 11.9 | CC(C)(C)c1cc(C(=O)Nc2ccccn2)cc(C(C)(C)C)c1O [Example 1, 3,5-Di-tert-butyl-4-hydroxy-N-pyridin-2-yl-benzamide] | 
